From US10807948B2, “Aromatic compounds and uses thereof” (PELOTON THERAPEUTICS, INC., priority 2015, dated 2020)
“Also recorded” adds a separate entry of the source.

Key:
[1] = target: T1, HIF-2α HIS TAG-PASB Domain (Homo sapiens, UniProt Q99814); assay: HIF-2α Scintillation Proximity Assay (SPA); assay type: binding; settings: displacement of tritiated probe from HIF-2α PASB domain
T1 construct: 100 nM HIF-2α HIS TAG-PASB Domain
Procedure: The total assay volume was about 100 μL in the following configuration: 2 μL compound in 100% DMSO, 88 μL buffer with protein and probe and 10 μL of SPA beads. […] The percent inhibition was determined and IC50 values were calculated using the Dotmatics system based on the following equation: % inhibition=[(high control−sample)/(high control−low control)]×100.

[2] = system: 786-O-Hif-Luc cells; assay: Luciferase Assay; assay type: cell-based; settings: about 24 hours
Procedure: 786-O-Hif-Luc single clone cells were obtained by infecting 786-O cells (ATCC® CRL-1932™) with commercial lentivirus that delivers a luciferase gene driven by multiple HIF responsive elements (Cignal Lenti HIF Reporter (luc): CLS-007L, Qiagen) at Multiplicity of Infection (MOI) of 25 for 24 hours. […] A pool of infected cells were then selected against 2 μg/mL of puromycin (P8833, Sigma) for 10 days followed by limited dilution to select single clones. […] For the luciferase assay, about 7500 786-O-Hif-Luc cells in 90 μL growth medium were seeded into each well of a 96-well white opaque plate (08-771-26, Fisher scientific) a day before treatment with the layout presented in FIG. 5.
Each concentration was tested in triplicate. After about 24 hours, luciferase activity was determined using ONE-Glo Luciferase Assay Reagent (E6110, Promega) following the manufacturer's recommended procedure. EC50 were calculated using Dotmatics software.

[3] = system: renal cell carcinoma 786-O xenograft; assay: In vivo efficacy study, 786-O xenograft; set-up: species or system SCID/Biege mouse; settings: for Tumor size (mm^3) Mean ± SEM: after 28 days of dosing
[4] = system: renal cell carcinoma 786-O xenograft; assay: In vivo PK/PD study: mRNA levels of genes in tumor by qRT-PCR; set-up: species or system SCID/Biege mice; settings: 3 mg/kg oral gavage, six times at 12 hour intervals; 12 hours post last dose
Procedure: (§1) About 5×10^6 renal cell carcinoma 786-O tumor cells (ATCC® CRL-1932™, VHL and HIF-1α null cell line) in PBS and Matrigel (1:1 in volume) were injected subcutaneously at the right flanks of SCID/Biege mice at 6-7 weeks of age for xenograft development. When the xenografts reached about 400 mm^3 in size, the tumor bearing mice were randomly divided into 2 groups (n=3). Plasma was collected prior to treatment by retro-orbital bleeding. The animals were treated with either vehicle or Compound 95 at 3 mg/kg by oral gavage (six times at 12 hour intervals). All animals were sacrificed at 12 hours post last dose. Tumor, kidney, and plasma samples were collected from each animal. Total RNA was extracted from the tumors and kidneys. The mRNA levels of several genes were determined by qRT-PCR (FIG. 1).
Total RNA was extracted from the tumors, and the expressions of putative HIF-1α and HIF-2α regulated genes were determined by qRT-PCR.

[5] = system: renal cell carcinoma 786-O xenograft; assay: In vivo PK/PD study: human VEGFA in plasma by ELISA; set-up: species or system SCID/Biege mice; settings: 3 mg/kg oral gavage, six times at 12 hour intervals
Procedure: as §1
The level of human VEGFA was determined by ELISA assay.

[6] = system: 786-O cells; assay: VEGF ELISA Assay; assay type: cell-based; settings: Homo sapiens, 786-0, VEGF concentration in cell culture medium
Procedure: About 7500 786-0 cells in 180 μL of growth medium were seeded into each well of a 96-well, white, clear bottom plate (07-200-566, Fisher Scientific) on day one in the layout presented in FIG. 3.
Each concentration was plated in duplicate. About 20 hours later, medium was removed by suction and each well was supplied with 180 μL of growth medium. About 20 μL freshly-made 10× compound stocks were added to each well. […] The EC50 was calculated by GraphPad Prism using the dose-response-inhibition (four parameter) equation. The cell-seeded plate was then subjected to CellTiter-Glo luminescence cell viability assay (Promega) by adding 50 μL of Celltiter Glo reagent into each well and shaking the plate for 8 minutes at 550 rpm (Thermomixer R, Eppendorf) then the luminescence signal immediately read in a plate reader (3 second delay, 0.5 second/well integration time, Synergy 2 multi Detection Microplate reader).

T1 sequence (Q99814 239-348): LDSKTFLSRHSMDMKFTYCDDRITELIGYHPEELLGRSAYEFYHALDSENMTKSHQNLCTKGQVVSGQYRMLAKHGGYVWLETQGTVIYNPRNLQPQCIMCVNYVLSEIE

Row | SMILES | IC50 [1] [nM] | EC50 [2] [nM] | further results
1 | CS(=O)(=O)c1ccc(OC2CC(F)(F)C2)c2c1[C@H](O)[C@H](F)[C@@H]2F (racemic) [Compound 98, (racemic)-4-(3,3-difluorocyclobutoxy)-2,3-difluoro-7-(methylsulfonyl)-2,3-dihydro-1H-inden-1-ol] | < 50 | – | –
2 | O=S(=O)(CF)c1ccc(OC2CC(F)(F)C2)c2c1[C@H](O)[C@H](F)[C@@H]2F (racemic) [Compound 99, (racemic)-4-(3,3-difluorocyclobutoxy)-2,3-difluoro-7-((fluoromethyl)sulfonyl)-2,3-dihydro-1H-inden-1-ol] | < 50 | – | –
3 | N#Cc1cncc(-c2ccc(S(=O)(=O)C(F)(F)F)c3c2CC(F)(F)C3O)c1 (stereo not drawn) [Compound 91] | > 1000 | > 1000 | –
4 | O=S(=O)(c1ccc(OCC2(F)COC2)c2c1[C@H](O)C(F)(F)C2)C(F)(F)F [Compound 94, (S)-2,2-difluoro-4-((3-fluorooxetan-3-yl)methoxy)-7-((trifluoromethyl)sulfonyl)-2,3-dihydro-1H-inden-1-ol] | – | < 50 | –
5 | CS(=O)(=O)c1ccc(OC2CC(F)(F)C2)c2c1[C@H](O)C(F)(F)[C@@H]2F [Compound 95, (1S,3R)-4-(3,3-difluorocyclobutoxy)-2,2,3-trifluoro-7-(methylsulfonyl)-2,3-dihydro-1H-inden-1-ol] | – | – | Tumor size (mm^3) Mean ± SEM ([3]; 1 mg/kg QD): 525.72 mm^3; Tumor size (mm^3) Mean ± SEM ([3]; 3 mg/kg QD): 154.52 mm^3; Tumor size (mm^3) Mean ± SEM ([3]; 10 mg/kg QD): 89.45 mm^3; effect on tumor growth / tumor sizes ([3]; 1, 3 and 10 mg/kg QD for 28 days, single agent): statistically significant reduction of tumor sizes for all treatment groups; also recorded: tumor growth inhibition and regression; CCND1 mRNA level in tumor [4]: significant reduction; also recorded: reduced; GLUT1 mRNA level in tumor [4]: significant reduction; also recorded: reduced; PAI-1 mRNA level in tumor [4]: significant reduction; also recorded: reduced; PGK1 mRNA level in tumor (HIF-1α specific target gene) [4]: no significant change; also recorded: no significant effect; VEGFA mRNA level in tumor [4]: significant reduction; also recorded: reduced; human VEGFA plasma level [5]: significant reduction; also recorded: reduced
6 | O=S(=O)(CF)c1ccc(OC2CC(F)(F)C2)c2c1[C@H](O)C(F)(F)[C@@H]2F [Compound 97, (1S,3R)-4-(3,3-difluorocyclobutoxy)-2,2,3-trifluoro-7-((fluoromethyl)sulfonyl)-2,3-dihydro-1H-inden-1-ol] | – | – | EC50 [6]: < 50 nM
7 | O[C@H]1c2c(C(F)(F)F)ccc(OC3CC(F)(F)C3)c2CC1(F)F [Compound 109] | – | < 50 | EC50 [6]: < 50 nM
8 | CCOc1ccc(S(=O)(=O)C(F)(F)F)c2c1CC(F)(F)C2O (stereo not drawn) [Compound 113] | 50 to 249 | – | –
9 | N#CC1(COc2ccc(S(=O)(=O)C(F)(F)F)c3c2CC(F)(F)C3O)CC1 (stereo not drawn) [Compound 142] | < 50 | – | –

More lines, main results first:

Row | IC50 [1] [nM] | EC50 [2] [nM] | SMILES | further results
10 | – | < 50 | CC1CC(Oc2ccc(S(=O)(=O)C(F)(F)F)c3c2CC(F)(F)C3O)CCO1 (stereo not drawn) [Compound 148] | –
11 | – | < 50 | COC[C@@H](C)Oc1ccc(S(=O)(=O)C(F)(F)F)c2c1CC(F)(F)[C@H]2O [Compound 184] | –
12 | > 1000 | – | FC(F)COc1ccc(C(F)(F)F)c2c1CC(F)(F)C2F (stereo not drawn) [Compound 214] | –
13 | > 1000 | – | OC1c2c(OCC(F)F)ccc(C(F)(F)F)c2C(F)C1(F)F (stereo not drawn) [Compound 215] | –
14 | 50 to 249 | 50 to 249 | OC1c2c(C(F)(F)F)ccc(OCC(F)F)c2CC1F (stereo not drawn) [Compound 221] | –
15 | < 50 | – | CO[C@H]1C[C@H](Oc2ccc(S(=O)(=O)C(F)(F)F)c3c2CC(F)(F)[C@H]3O)C1 [Compound 239] | –
16 | – | < 50 | CS(=O)(=O)c1ccc(O[C@H]2C[C@H](F)C2)c2c1[C@H](O)C(F)(F)[C@@H]2F [Compound 261] | –
17 | – | 50 to 249 | CS(=O)(=O)c1ccc(OC2CCC2)c2c1[C@H](O)C(F)(F)[C@@H]2F [Compound 281] | –
18 | < 50 | – | CS(=O)(=O)c1ccc(OCC2CC(F)(F)C2)c2c1[C@H](O)C(F)(F)[C@@H]2F [Compound 287] | –
